The source made the active and inactive calls. The rule behind the calls is not given here.
Columns and labels:
[1] = biological target: G-protein coupled receptor 84 (Homo sapiens, UniProt Q9NQS5); experiment: Agonist activity at GPR84 (unknown origin) expressed in HEK293 cells coexpressing Galpha16 protein by Fluo-4 AM dye based calcium mobilization assay; format: functional, cell-based
[2] = Oral bioavailability in ICR mouse at 10 mg/kg administered through gavage measured up to 24 hrs post dose by LC-MS/MS analysis; format: ADME, organism-based; conditions: in vivo
[3] = biological target: T1, Glucose-dependent insulinotropic receptor (Homo sapiens) (UniProt Q8TDV5); experiment: Agonist activity at GPR119 (unknown origin) up to 100 uM by Fluo-4 AM dye based calcium mobilization assay; format: functional
T1 sequence (whole entry): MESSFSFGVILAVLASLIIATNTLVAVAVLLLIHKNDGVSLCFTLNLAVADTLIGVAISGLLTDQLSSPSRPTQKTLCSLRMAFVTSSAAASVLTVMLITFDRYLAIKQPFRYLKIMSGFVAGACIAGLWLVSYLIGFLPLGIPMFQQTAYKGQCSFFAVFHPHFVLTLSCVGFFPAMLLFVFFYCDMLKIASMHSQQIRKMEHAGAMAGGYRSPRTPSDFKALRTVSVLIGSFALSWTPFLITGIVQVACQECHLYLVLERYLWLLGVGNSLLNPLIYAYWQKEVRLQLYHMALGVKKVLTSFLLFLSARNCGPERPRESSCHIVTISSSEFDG

[4] = biological target: T2, Free fatty acid receptor 4 (Homo sapiens) (UniProt Q5NUL3); experiment: Agonist activity at GPR120 (unknown origin) up to 100 uM by Fluo-4 AM dye based calcium mobilization assay; format: functional
T2 sequence (whole entry): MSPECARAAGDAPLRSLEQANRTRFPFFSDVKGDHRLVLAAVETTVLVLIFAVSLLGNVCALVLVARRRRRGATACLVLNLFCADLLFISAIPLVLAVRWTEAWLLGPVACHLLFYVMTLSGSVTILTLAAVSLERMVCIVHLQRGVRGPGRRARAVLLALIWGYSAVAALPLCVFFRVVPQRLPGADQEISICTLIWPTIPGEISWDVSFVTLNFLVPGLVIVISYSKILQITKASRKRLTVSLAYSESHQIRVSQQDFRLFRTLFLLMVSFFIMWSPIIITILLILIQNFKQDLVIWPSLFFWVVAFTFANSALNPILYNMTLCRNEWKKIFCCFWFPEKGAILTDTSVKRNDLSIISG

[5] = AUC (0 to t) in ICR mouse plasma at 10 mg/kg, po administered through gavage measured up to 24 hrs post dose by LC-MS/MS analysis; format: ADME, organism-based; set-up: time < 24 hr, dose 10 mg/kg, route oral
[6] = Cmax in ICR mouse plasma at 10 mg/kg, po administered through gavage measured up to 24 hrs post dose by LC-MS/MS analysis; format: ADME, organism-based; set-up: dose 10 mg/kg, route oral
[7] = biological target: T3, Free fatty acid receptor 1 (Homo sapiens, UniProt O14842); experiment: Agonist activity at GPR40 (unknown origin) up to 100 uM by Fluo-4 AM dye based calcium mobilization assay; format: functional
[8] = biological target: T4, Free fatty acid receptor 3 (Homo sapiens) (UniProt O14843); experiment: Agonist activity at GPR41 (unknown origin) up to 100 uM by Fluo-4 AM dye based calcium mobilization assay; format: functional
T4 sequence (whole entry): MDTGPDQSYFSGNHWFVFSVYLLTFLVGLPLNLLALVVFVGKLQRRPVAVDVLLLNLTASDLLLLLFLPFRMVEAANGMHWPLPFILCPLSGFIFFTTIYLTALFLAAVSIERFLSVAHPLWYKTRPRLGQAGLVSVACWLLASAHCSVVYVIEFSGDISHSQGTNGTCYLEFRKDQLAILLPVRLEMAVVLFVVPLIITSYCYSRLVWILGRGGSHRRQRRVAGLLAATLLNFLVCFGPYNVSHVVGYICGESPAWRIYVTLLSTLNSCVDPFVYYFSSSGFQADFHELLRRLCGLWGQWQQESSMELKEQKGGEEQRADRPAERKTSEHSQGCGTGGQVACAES

[9] = biological target: T3, Free fatty acid receptor 1; experiment: Agonist activity at GPR40 (unknown origin) by Fluo-4 AM dye based calcium mobilization assay; format: functional
[10] = biological target: T5, Glucose-dependent insulinotropic receptor (Homo sapiens, UniProt Q8TDV5); experiment: Agonist activity at GPR119 (unknown origin) by Fluo-4 AM dye based calcium mobilization assay; format: functional
T5 sequence (Q8TDV5 whole entry): T1 sequence (whole entry)

[11] = biological target: T6, Free fatty acid receptor 3 (Homo sapiens, UniProt O14843); experiment: Agonist activity at GPR41 (unknown origin) by Fluo-4 AM dye based calcium mobilization assay; format: functional
T6 sequence (O14843 whole entry): T4 sequence (whole entry)

Chain of G-protein coupled receptor 84 (Q9NQS5 whole entry): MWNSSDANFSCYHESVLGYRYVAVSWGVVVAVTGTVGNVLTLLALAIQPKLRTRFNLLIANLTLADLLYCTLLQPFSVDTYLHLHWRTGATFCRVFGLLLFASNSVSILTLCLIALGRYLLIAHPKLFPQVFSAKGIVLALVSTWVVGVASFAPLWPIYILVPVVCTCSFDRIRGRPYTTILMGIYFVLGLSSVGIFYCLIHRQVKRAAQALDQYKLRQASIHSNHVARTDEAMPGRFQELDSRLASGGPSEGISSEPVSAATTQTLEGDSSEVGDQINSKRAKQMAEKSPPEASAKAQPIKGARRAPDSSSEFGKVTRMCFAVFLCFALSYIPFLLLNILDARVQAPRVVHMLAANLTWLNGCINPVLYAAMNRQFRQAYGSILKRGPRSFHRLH
T3 sequence (O14842 whole entry): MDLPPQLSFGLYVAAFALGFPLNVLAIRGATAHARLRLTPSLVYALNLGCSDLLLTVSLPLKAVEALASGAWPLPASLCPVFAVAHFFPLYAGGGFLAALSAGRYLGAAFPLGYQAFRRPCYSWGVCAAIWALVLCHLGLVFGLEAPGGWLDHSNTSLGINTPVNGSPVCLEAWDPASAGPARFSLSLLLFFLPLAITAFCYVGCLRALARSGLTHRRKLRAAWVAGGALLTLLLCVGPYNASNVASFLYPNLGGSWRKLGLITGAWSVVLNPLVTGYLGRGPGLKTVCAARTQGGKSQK

Nc1cc(O)nc(SCCCCc2ccccc2)n1
EC50 [1]: > 100 µM

Nc1cc(N)nc(SCCCCc2ccccc2)n1
EC50 [1]: > 100 µM

N#CCCCCc1nc(O)cc(O)n1
EC50 [1]: > 100 µM

CCCCCCCCCc1cc(O)cc(O)n1
bioavailability [2]: 24.3% | Activity [3]: inactive | Activity [4]: inactive | AUC(0-t) at 24 h [5]: 399 ng·h/mL | Cmax [6]: 229 ng/mL | Activity [7]: inactive | Activity [8]: inactive

CCCCCCOc1cc(O)nc(SCCCCCC)n1
EC50 [1]: > 100 µM

CC/C=C\C/C=C\C/C=C\C/C=C\C/C=C\C/C=C\CCC(=O)O [DOCONEXENT]
EC50 [9]: 11.7 µM

CCCCCCSc1nc(OCCCCCCCO)cc(=O)[nH]1
EC50 [1]: > 100 µM

Oc1cc(C(F)(F)F)nc(SCCCCc2ccccc2)n1
EC50 [1]: > 100 µM

CCCCCCSc1nc(O)cc(=O)n1C
EC50 [1]: > 100 µM

CCCCCCSc1nc(O)cc(=O)n1Cc1ccccc1
EC50 [1]: > 100 µM

CC/C=C\CCSc1nc(O)cc(O)n1
EC50 [1]: 0.938 µM

CC(C)(C)OC(=O)N1CCC(OCc2nc(-c3ccncc3)no2)CC1
EC50 [10]: 5.13 µM

C#CCCSc1nc(O)cc(O)n1
EC50 [1]: 8.85 µM

CCCC(=O)[O-].[Na+] [SODIUM BUTYRATE]
EC50 [11]: 10.1 µM

Cc1c(O)nc(SCCCCc2ccccc2)nc1O
EC50 [1]: > 100 µM

CCCCCCc1nc(O)cc(O)n1
EC50 [1]: 0.454 µM

OCCCCCCCCSc1nc(O)cc(O)n1
EC50 [1]: > 100 µM

Cc1cc(O)nc(SCCCCc2ccccc2)n1
EC50 [1]: > 100 µM

Reference: ChEMBL document CHEMBL3826952, “Design and Synthesis of 2-Alkylpyrimidine-4,6-diol and 6-Alkylpyridine-2,4-diol as Potent GPR84 Agonists” (ACS Med Chem Lett, 2016)
